The text below walks through data of patent US11492413B2, “Switchable antibody conjugate” (Temple University—Of The Commonwealth System of Higher …, priority 2017, dated 2022).

Series [1] deals with Her2-positive breast cancer cell line SK-BR-3. Nature of the series: In vitro cytotoxicity assay (CellTiter Glo) on SK-BR-3. Type of series: cell-based. Here is the method: SK-BR-3 cell line (ATCC) was cultured and assayed in DMEM (Cellgro) supplemented with 10% (vol/vol) FBS, 100 IU/mL penicillin, and 100 μg/mL streptomycin. Ramos cell line (ATCC) was cultured and assayed in RPMI-1640 media mixed with the same supplements as described above. For cytotoxicity assay, SK-BR-3 cancer cells were plated in flat-bottom 96 well plates at 1000 cells, 90 μL fresh cell media/well, and were incubated overnight at 37° C., 5% CO2. The MMAF compound and protein samples were filtered (0.22 μm, EMD Millipore), serially diluted in PBS buffer as 10× stock solutions, and added in triplicate to cancer cells (10 μL/well). To prevent evaporation, the edges of the plates were filled with 200 μL of bank media. […] The luminescence signals were detected on a Synergy H1 plate reader (BioTek). The viability of the cells treated with PBS buffer was used as a control, the signal of which was normalized as 100%. Ramos cancer cells were plated in flat-bottom 96 well plates at 10000 cells/well, and were directly treated with protein samples and MMAF control compound. The rest of the assay procedure was the same as described above.
For orientation: Cellular ATP, detected with luciferase, serves as a proxy for viable cell number.

Series [2] deals with CD19-positive Burkitt's lymphoma cell line Ramos. Kind of series: In vitro cytotoxicity assay (CellTiter Glo) on Ramos. Type of series: cell-based. Particulars: 72 hour incubation; mixtures αGCN4-Fab-MMAF:GCN4 fusion at molar ratio 2:1. Here is the method: SK-BR-3 cell line (ATCC) was cultured and assayed in DMEM (Cellgro) supplemented with 10% (vol/vol) FBS, 100 IU/mL penicillin, and 100 μg/mL streptomycin. Ramos cell line (ATCC) was cultured and assayed in RPMI-1640 media mixed with the same supplements as described above. For cytotoxicity assay, SK-BR-3 cancer cells were plated in flat-bottom 96 well plates at 1000 cells, 90 μL fresh cell media/well, and were incubated overnight at 37° C., 5% CO2. The MMAF compound and protein samples were filtered (0.22 μm, EMD Millipore), serially diluted in PBS buffer as 10× stock solutions, and added in triplicate to cancer cells (10 μL/well). To prevent evaporation, the edges of the plates were filled with 200 μL of bank media. The plates were then incubated at 37° C., 5% CO2 for 72 hours, after which the ATP content of each well was measured by CellTiter Glo (Promega). The luminescence signals were detected on a Synergy H1 plate reader (BioTek). The viability of the cells treated with PBS buffer was used as a control, the signal of which was normalized as 100%. Ramos cancer cells were plated in flat-bottom 96 well plates at 10000 cells/well, and were directly treated with protein samples and MMAF control compound. The rest of the assay procedure was the same as described above.

Read-outs that look alike come from different tables or passages of the source. Non-standard residues stand in square brackets, D forms with d. Residues, ends and D or L forms follow the SMILES beside them. Dolaproine = CO[C@@H]([C@@H]1CCCN1)[C@@H](C)C(=O)O; Dil = CC[C@H](C)[C@H](NC)[C@@H](CC(=O)O)OC; NMeV = CN[C@H](C(=O)O)C(C)C

`CC[C@H](C)[C@@H]([C@@H](CC(=O)N1CCC[C@H]1[C@H](OC)[C@@H](C)C(=O)N[C@@H](Cc1ccccc1)C(=O)O)OC)N(C)C(=O)[C@@H](NC(=O)[C@@H](NC)C(C)C)C(C)C` [MMAF, monomethyl auristatin F] (H-[NMeV]V[Dil][Dolaproine]F-OH): the EC50 was 50 ± 39 nM in series [1] (72 hour incubation, mixtures αGCN4-Fab-MMAF:GCN4 fusion at molar ratio 2:1, read-out: EC50 (nM) on SK-BR-3); 50 to 89 nM in series [1] (range over Ramos and SK-BR-3, 72 hour incubation, read-out: EC50s, medium cytotoxicity of positive control); 89 ± 37 nM in series [2].
